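Assay format: 96-well plates, 48-hour exposure. GI50 = concentration required for 50% inhibition of growth.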 Activity calls are given as the source filed them. No stated cut-off is given here; in the data, active = GI50 up to about 1.1 µM and inactive = higher.
Columns and labels:
Assay in all cases: inhibition of tumour cell growth, NCI panel, 48 h
UO-31 = system: UO-31
COLO 205 = system: COLO 205
DU-145 = system: DU-145
786-0 = system: 786-0
K562 = system: K562
HCC 2998 = system: HCC 2998
HCT-15 = system: HCT-15
OVCAR-4 = system: OVCAR-4
CAKI-1 = system: CAKI-1
MCF7 = system: MCF7
A549 = system: A549
Hs-578T = system: Hs-578T
OVCAR-3 = system: OVCAR-3
SF-268 = system: SF-268
HOP-62 = system: HOP-62
SN12C = system: SN12C
IGROV-1 = system: IGROV-1
NCI/ADR-RES = system: NCI/ADR-RES
SR = system: SR
EKVX = system: EKVX
NCI-H226 = system: NCI-H226
PC-3 = system: PC-3
CCRF-CEM = system: CCRF-CEM
RPMI-8226 = system: RPMI-8226
HCT-116 = system: HCT-116
SNB-75 = system: SNB-75
SNB-19 = system: SNB-19
HOP-92 = system: HOP-92
SK-MEL-28 = system: SK-MEL-28
RXF 393 = system: RXF 393
U-251 = system: U-251
HT-29 = system: HT-29
SF-295 = system: SF-295
M14 = system: M14
UACC-257 = system: UACC-257
SK-OV-3 = system: SK-OV-3
MDA-N = system: MDA-N
NCI-H460 = system: NCI-H460
NCI-H522 = system: NCI-H522
SW-620 = system: SW-620
OVCAR-5 = system: OVCAR-5
BT-549 = system: BT-549
ACHN = system: ACHN
SK-MEL-2 = system: SK-MEL-2
NCI-H23 = system: NCI-H23
KM12 = system: KM12
MOLT-4 = system: MOLT-4
SF-539 = system: SF-539
UACC-62 = system: UACC-62
SK-MEL-5 = system: SK-MEL-5
OVCAR-8 = system: OVCAR-8
MDA-MB-435 = system: MDA-MB-435
MDA-MB-231 = system: MDA-MB-231
Malme-3M = system: Malme-3M
LOX IMVI = system: LOX IMVI
A498 = system: A498
HL-60 = system: HL-60
TK-10 = system: TK-10

Q: With `FC(F)(F)c1cc(Cl)cnc1N/N=C(/c1ccccc1)c1ccccn1` as the compound, how does the GI50 (UO-31) read?
A: 2.94 µM (inactive)

Q: And the GI50 (COLO 205)?
A: 2.03 µM (inactive)

Q: What about the GI50 (DU-145) of the same compound?
A: 4.46 µM (inactive)

Q: What about the GI50 (786-0) of the same compound?
A: 2.84 µM (inactive)

Q: What about the GI50 (K562) of the same compound?
A: 2.16 µM (inactive)

Q: What about the GI50 (HCC 2998) of the same compound?
A: 8 µM (inactive)

Q: And the GI50 (HCT-15)?
A: 0.74 µM

Q: What about the GI50 (OVCAR-4) of the same compound?
A: 6.67 µM (inactive)

Q: And the GI50 (CAKI-1)?
A: 3.37 µM (inactive)

Q: And the GI50 (MCF7)?
A: 3.13 µM (inactive)

Q: And the GI50 (A549)?
A: 3.03 µM (inactive)

Q: And the GI50 (Hs-578T)?
A: 0.422 µM (active)

Q: And the GI50 (OVCAR-3)?
A: 1.82 µM (inactive)

Q: What about the GI50 (SF-268) of the same compound?
A: 0.78 µM (active)

Q: What about the GI50 (HOP-62) of the same compound?
A: 3.98 µM (inactive)

Q: And the GI50 (SN12C)?
A: 5.36 µM (inactive)

Q: What about the GI50 (IGROV-1) of the same compound?
A: 1.92 µM (inactive)

Q: What about the GI50 (NCI/ADR-RES) of the same compound?
A: 2.34 µM (inactive)

Q: And the GI50 (SR)?
A: 0.708 µM (active)

Q: And the GI50 (EKVX)?
A: 1.03 µM (active)

Q: And the GI50 (NCI-H226)?
A: 1.57 µM (inactive)

Q: And the GI50 (PC-3)?
A: 3.54 µM (inactive)

Q: And the GI50 (CCRF-CEM)?
A: 0.492 µM (active)

Q: What about the GI50 (RPMI-8226) of the same compound?
A: 4.11 µM (inactive)

Q: What about the GI50 (HCT-116) of the same compound?
A: 3.16 µM (inactive)

Q: And the GI50 (SNB-75)?
A: 0.298 µM (active)

Q: And the GI50 (SNB-19)?
A: 4.67 µM (inactive)

Q: What about the GI50 (HOP-92) of the same compound?
A: 1.81 µM (inactive)

Q: And the GI50 (SK-MEL-28)?
A: 6.92 µM (inactive)

Q: What about the GI50 (RXF 393) of the same compound?
A: 9.66 µM (inactive)

Q: What about the GI50 (U-251) of the same compound?
A: 3.62 µM (inactive)

Q: What about the GI50 (HT-29) of the same compound?
A: 0.248 µM (active)

Q: What about the GI50 (SF-295) of the same compound?
A: 2.16 µM (inactive)

Q: What about the GI50 (M14) of the same compound?
A: 0.719 µM (active)

Q: And the GI50 (UACC-257)?
A: 3.04 µM (inactive)

Q: What about the GI50 (SK-OV-3) of the same compound?
A: 2.49 µM (inactive)

Q: What about the GI50 (MDA-N) of the same compound?
A: 17.8 µM (inactive)

Q: What about the GI50 (NCI-H460) of the same compound?
A: 3.68 µM (inactive)

Q: What about the GI50 (NCI-H522) of the same compound?
A: 1.57 µM (inactive)

Q: And the GI50 (SW-620)?
A: 3.85 µM (inactive)

Q: And the GI50 (OVCAR-5)?
A: 2 µM (inactive)

Q: And the GI50 (BT-549)?
A: 6.93 µM (inactive)

Q: And the GI50 (ACHN)?
A: 2.92 µM (inactive)

Q: What about the GI50 (SK-MEL-2) of the same compound?
A: 3.96 µM (inactive)

Q: What about the GI50 (NCI-H23) of the same compound?
A: 2.55 µM (inactive)

Q: What about the GI50 (KM12) of the same compound?
A: 1.85 µM (inactive)

Q: What about the GI50 (MOLT-4) of the same compound?
A: 1.31 µM (inactive)

Q: And the GI50 (SF-539)?
A: 3.66 µM (inactive)

Q: And the GI50 (UACC-62)?
A: 3.27 µM (inactive)

Q: What about the GI50 (SK-MEL-5) of the same compound?
A: 3.15 µM (inactive)

Q: And the GI50 (OVCAR-8)?
A: 1.8 µM (inactive)

Q: And the GI50 (MDA-MB-435)?
A: 4.85 µM (inactive)

Q: And the GI50 (MDA-MB-231)?
A: 4.09 µM (inactive)

Q: How did the GI50 (UO-31) turn out when `CCOC(=O)CCC(NC(=O)Cc1ccc(Oc2nc3ccccc3nc2-c2cccs2)cc1)C(=O)OCC` (configuration not stated) was run?
A: 22.6 µM (inactive)

Q: And the GI50 (COLO 205)?
A: > 100 µM (inactive)

Q: What about the GI50 (Malme-3M) of the same compound?
A: 22.7 µM (inactive)

Q: And the GI50 (DU-145)?
A: 7.45 µM (inactive)

Q: And the GI50 (786-0)?
A: 2.49 µM (inactive)

Q: What about the GI50 (K562) of the same compound?
A: > 100 µM (inactive)

Q: And the GI50 (HCC 2998)?
A: 32.2 µM (inactive)

Q: And the GI50 (HCT-15)?
A: > 100 µM

Q: And the GI50 (OVCAR-4)?
A: 13.5 µM (inactive)

Q: And the GI50 (CAKI-1)?
A: 39.3 µM (inactive)

Q: And the GI50 (MCF7)?
A: > 100 µM (inactive)

Q: And the GI50 (A549)?
A: 7.19 µM (inactive)

Q: What about the GI50 (LOX IMVI) of the same compound?
A: 20.7 µM (inactive)

Q: And the GI50 (Hs-578T)?
A: 13.6 µM (inactive)

Q: What about the GI50 (OVCAR-3) of the same compound?
A: 4.07 µM (inactive)

Q: And the GI50 (SF-268)?
A: 1.64 µM (inactive)

Q: What about the GI50 (HOP-62) of the same compound?
A: 1.73 µM (inactive)

Q: What about the GI50 (SN12C) of the same compound?
A: 8.89 µM (inactive)

Q: What about the GI50 (IGROV-1) of the same compound?
A: 47.5 µM (inactive)

Q: And the GI50 (NCI/ADR-RES)?
A: 4.95 µM (inactive)

Q: What about the GI50 (SR) of the same compound?
A: > 100 µM (inactive)

Q: What about the GI50 (EKVX) of the same compound?
A: 26.1 µM (inactive)

Q: And the GI50 (NCI-H226)?
A: 16.6 µM (inactive)

Q: What about the GI50 (PC-3) of the same compound?
A: 80.2 µM (inactive)

Q: What about the GI50 (CCRF-CEM) of the same compound?
A: > 100 µM (inactive)

Q: What about the GI50 (RPMI-8226) of the same compound?
A: > 100 µM (inactive)

Q: What about the GI50 (HCT-116) of the same compound?
A: 6.15 µM (inactive)

Q: And the GI50 (SNB-19)?
A: 9.29 µM (inactive)

Q: And the GI50 (HOP-92)?
A: 14 µM (inactive)

Q: And the GI50 (SK-MEL-28)?
A: > 100 µM (inactive)

Q: What about the GI50 (RXF 393) of the same compound?
A: 2.3 µM (inactive)

Q: And the GI50 (U-251)?
A: 11.4 µM (inactive)

Q: What about the GI50 (HT-29) of the same compound?
A: > 100 µM (inactive)

Q: What about the GI50 (SF-295) of the same compound?
A: 40.9 µM (inactive)

Q: And the GI50 (M14)?
A: > 100 µM (inactive)

Q: What about the GI50 (UACC-257) of the same compound?
A: > 100 µM (inactive)

Q: And the GI50 (A498)?
A: 19.4 µM (inactive)

Q: And the GI50 (NCI-H460)?
A: 34.4 µM (inactive)

Q: What about the GI50 (NCI-H522) of the same compound?
A: 52 µM (inactive)

Q: And the GI50 (SW-620)?
A: > 100 µM (inactive)

Q: And the GI50 (HL-60)?
A: > 100 µM (inactive)

Q: What about the GI50 (OVCAR-5) of the same compound?
A: 8.97 µM (inactive)

Q: What about the GI50 (BT-549) of the same compound?
A: 29.7 µM (inactive)

Q: What about the GI50 (ACHN) of the same compound?
A: 2.44 µM (inactive)

Q: And the GI50 (SK-MEL-2)?
A: 56.5 µM (inactive)

Q: And the GI50 (NCI-H23)?
A: 61.9 µM (inactive)

Q: What about the GI50 (TK-10) of the same compound?
A: 19.2 µM (inactive)

Q: What about the GI50 (KM12) of the same compound?
A: > 100 µM (inactive)

Q: What about the GI50 (MOLT-4) of the same compound?
A: > 100 µM (inactive)

Q: And the GI50 (SF-539)?
A: 5.14 µM (inactive)

Q: What about the GI50 (UACC-62) of the same compound?
A: 38.4 µM (inactive)

Q: What about the GI50 (SK-MEL-5) of the same compound?
A: > 100 µM (inactive)

Q: What about the GI50 (OVCAR-8) of the same compound?
A: 1.82 µM (inactive)

Q: What about the GI50 (MDA-MB-435) of the same compound?
A: 88.7 µM (inactive)

Q: And the GI50 (MDA-MB-231)?
A: 4.08 µM (inactive)

Q: How did the GI50 (DU-145) turn out when `C#CCn1c(=O)c(I)cn(/C(=C\C(=O)OCC)C(=O)OCC)c1=O` was run?
A: 17.5 µM (inactive)

Q: And the GI50 (A549)?
A: 34.8 µM (inactive)

Q: What about the GI50 (Hs-578T) of the same compound?
A: 49.8 µM (inactive)

Q: What about the GI50 (HOP-62) of the same compound?
A: 17.4 µM (inactive)

Q: And the GI50 (NCI/ADR-RES)?
A: 26.1 µM (inactive)

Q: What about the GI50 (NCI-H226) of the same compound?
A: 17.9 µM (inactive)

Q: And the GI50 (SNB-75)?
A: 17.1 µM (inactive)

Q: What about the GI50 (SNB-19) of the same compound?
A: 26.9 µM (inactive)

Q: And the GI50 (U-251)?
A: 15.7 µM (inactive)

Q: And the GI50 (SF-295)?
A: 18.7 µM (inactive)

Q: What about the GI50 (A498) of the same compound?
A: 16.7 µM (inactive)

Q: What about the GI50 (SK-OV-3) of the same compound?
A: 17.9 µM (inactive)

Q: What about the GI50 (NCI-H460) of the same compound?
A: 20.3 µM (inactive)

Q: And the GI50 (OVCAR-5)?
A: 20.6 µM (inactive)

Q: And the GI50 (SK-MEL-2)?
A: 18.9 µM (inactive)

Q: What about the GI50 (KM12) of the same compound?
A: 17.3 µM (inactive)

Q: And the GI50 (SF-539)?
A: 18.4 µM (inactive)

Q: What about the GI50 (UACC-62) of the same compound?
A: 16.9 µM (inactive)

Q: And the GI50 (MDA-MB-435)?
A: 17.1 µM (inactive)

Reference: ChEMBL document CHEMBL1201862, “PubChem BioAssay data set” (2004)
